Laboratory results taken from patent US6204283A, “Parasitic mite control on beneficial insects” (American Cyanamid Company, priority 1999, dated 2001).

Key:
Format in all cases: in vivo
[1] = system: Varroa jacobsoni (Varroa mites); assay: Efficacy against Varroa jacobsoni parasites on infested honeybees, topical application (mite mortality); conditions: 120 h, topical 1 μl acetone solution, 5 days, 31° C.
Procedure: (§1) Evaluation Of The Efficacy Of Test Compound Against Varroa jacobsoni Parasites
(§2) In this evaluation, honeybees (Apis mellifera) taken from hives which are 70-90% infested with Varroa jacobsoni (Varroa mites) are chilled to immobilize the bees. A 1 μl droplet of an acetone solution of tebufenpyrad is applied to the dorsal abdomen of each bee. Control bees receive 1 μl droplet of acetone. A total of 50-52 bees are treated for each dose rate tested. Treatment dose rates are based upon the LD50 (dose rate required to obtain 50% mortality of healthy uninfected bees) of tebufenypyrad and are set at 10% of the LD50 and subsequent 10-fold dilution thereof. The treated bees are placed in an incubator at 31° C. in the dark and fed 50% sugar water ad libitum for 5 days. After incubation, the bees are examined for mortality and mite infestation. The results are shown in Table I below, as % mortality of the total of the bees and the total of the mites.

[2] = system: Acarapis woodi (trachea mites); assay: Efficacy against Acarapis woodi parasites on treated glass slides; conditions: slides dipped in 500 ppm acetone solution
From the text: Evaluation Of The Efficacy Of Test Compound Against Acarapis woodi Parasites
In this evaluation, honeybees (Apis mellifera) which are infested with Acarapis woodi (trachea mites) are dissected to remove the infested tracheae. Glass microscope slides are dipped into acetone solutions of tebufenpyrad (500 ppm)and the acetone is allowed to evaporate. Infested tracheae are placed directly on the treated slides. The mites are removed from the tracheae by dissection and forced to walk across the treated area. The elapsed time is recorded for 100% mortality, i.e. no movement is observed upon agitation.

Varroa jacobsoni = assay: Field evaluation against Varroa jacobsoni parasites in infested beehives (stickyboard count); conditions: two strips containing 18% tebufenpyrad in 60:40 beeswax:lard, 24 hours after treatment
From the text: Field Evaluation Of The Efficiacy Of Test Compound Against Varroa jacobsoni Parasites
In this evaluation, two Varroa jacobsoni infested beehives are monitored for the extent of infestation using stickyboards inserted at the bottom of the hive. Data are presented as the number of mites trapped on the stickyboard per day. Two strips (2.5×17 cm) containing 18% tebufenpyrad dissolved in a 60:40 beeswax:lard (Crisco®) mixture are inserted into each hive brood chamber as per standard practice. One day after treatment, the stickyboards are removed and the dead mites counted.

[3] = system: honeybees (Apis mellifera); assay: Mortality of the Varroa-infested honeybees, topical application; conditions: 120 h, topical 1 μl acetone solution, 5 days, 31° C., read-out: % Mortality, Bees
Procedure: as §1, §2

**Q.** CCc1nn(C)c(C(=O)NCc2ccc(C(C)(C)C)cc2)c1Cl [Tebufenpyrad, N-(4-t-butylbenzyl)-4-chloro-3-ethyl-1-methylpyrazole-5-carboxamide] was tested. Which mortality at 0.006 µg/bee ([1]; 0.006 μg/bee) did it give?
**A.** The mortality at 0.006 µg/bee was 58%.

**Q.** And the mortality at 0.06 µg/bee ([1]; 0.06 μg/bee)?
**A.** Its mortality at 0.06 µg/bee is 44%.

**Q.** And the mortality at 0.6 µg/bee ([1]; 0.6 μg/bee)?
**A.** Its mortality at 0.6 µg/bee is 92%.

**Q.** And the “Time required to achieve 100% mortality” value ([2]; Rep. 1, 7 mites)?
**A.** Its value is 8.5 min.

**Q.** And the “Time required to achieve 100% mortality” value ([2]; Rep. 2, 10 mites)?
**A.** Its value is 8 min.

**Q.** And the “Time required to achieve 100% mortality” value ([2]; Rep. 3, 7 mites)?
**A.** The value was 8 min.

**Q.** What about the “Treatment mites/day (dead mites trapped on stickyboard)” value (Varroa jacobsoni; Hive 1, pretreatment 101 mites/day) of the same molecule?
**A.** Its value is 1777 mites/day.

**Q.** What about the “Treatment mites/day (dead mites trapped on stickyboard)” value (Varroa jacobsoni; Hive 2, pretreatment 66 mites/day) of the same molecule?
**A.** The value was 1080 mites/day.

**Q.** What about the mortality at 0.006 µg/bee ([3]; 0.006 μg/bee) of the same molecule?
**A.** Its mortality at 0.006 µg/bee is 24%.

**Q.** What about the mortality at 0.06 µg/bee ([3]; 0.06 μg/bee) of the same molecule?
**A.** Its mortality at 0.06 µg/bee is 25%.

**Q.** What about the mortality at 0.6 µg/bee ([3]; 0.6 μg/bee) of the same molecule?
**A.** Its mortality at 0.6 µg/bee is 28%.
